Experimental data published in PubChem BioAssay AID623861 (Sanford-Burnham Center for Chemical Genomics, 2012).
Active and inactive are the calls of the source.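 The calls were made as follows: active = compounds whose EC50 for boosting single-cell stem cell survival is at or below a set limit; inactive = the rest.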

What follows are compounds tested on human iPSC single-cell survival, ATP luminescence (assay: human iPSC survival promotion after dissociation – cell-based, luminescence, dose response (AID 623861)).
For Cc1ccsc1C(=O)OCC(=O)Nc1sccc1C(N)=O, the EC50 was > 80 µM (inactive).
C=C1C(=O)OC2CC(C)C3C=CC(=O)C3(C)C(O)C12 (centres undefined) showed an EC50 of 9.47 µM.
Cn1cnnc1SCC(=O)c1ccc2c(c1)OCO2 was tested, and the EC50 was > 80 µM (inactive).
O=C(Nc1ccncc1)c1cc(S(=O)(=O)N2CCOCC2)ccc1Cl was tested, and the EC50 was 20.4 µM (inactive).
With CC(C)CC1Nc2ncnc(N3CCN(c4ccccc4)CC3)c2N(Cc2ccccc2)C1=O (centres undefined) the EC50 was > 80 µM (inactive).
CC1C/C(=C/c2ccncc2)C(=O)/C(=C/c2ccncc2)C1 (centres undefined) gave an EC50 of 12.9 µM.
CN1C/C(=C/c2cccnc2)C(=O)/C(=C/c2cccnc2)C1 was tested, and the EC50 was 13.7 µM.
Work on O=C(C(O)c1ccc(Br)cc1)N1CCC(Nc2ccc3[nH]ncc3c2)CC1 (centres undefined) yielded an EC50 of 6.68 µM.
For Cc1ccc(NC(=O)/C(=C\c2ccc([N+](=O)[O-])cc2)NC(=O)c2ccccc2)cc1, the EC50 was > 80 µM (inactive).
In the case of CCCCCCn1c(SCCN2CCOCC2)nc2c1c(=O)[nH]c(=O)n2C, the EC50 is reported as > 80 µM (inactive).
For O=C(Nc1cccnc1Cl)c1cccnc1Cl, the EC50 was > 80 µM (inactive).
With O=C(Cc1ccc(Br)cc1)Nc1ccc2[nH]ncc2c1 the EC50 was 25.2 µM (inactive).
With COc1ccc(S(=O)(=O)Nc2ccc3c(c2)C(=O)N([C@H](C)CO)C[C@H](C)[C@@H](CN(C)C(=O)NC2CCCCC2)O3)cc1 the EC50 was > 80 µM (inactive).
In the case of COC(=O)CCSc1cc([N+](=O)[O-])cc2c1c(C1OCCS1)nn2-c1ccccc1 (centres undefined), the EC50 is reported as 42.7 µM (inactive).
For CCCn1c(SCc2ccccc2)nc2c1c(=O)[nH]c(=O)n2C, the EC50 was > 80 µM (inactive).
With C[C@@H]1CCCCO[C@@H](CN(C)S(=O)(=O)c2cccs2)[C@@H](C)CN([C@H](C)CO)C(=O)c2cc(NS(=O)(=O)c3ccccc3)ccc2O1 the EC50 was > 80 µM (inactive).
In the case of COc1ccc(CN(C)CCCn2cnc3c(OC)ncnc32)cc1OC, the EC50 is reported as > 80 µM (inactive).
For CC(OC(=O)c1ccc(S(C)(=O)=O)c([N+](=O)[O-])c1)C(=O)NC1C2CC3CC(C2)CC1C3 (centres undefined), the EC50 was > 80 µM (inactive).
C[C@@H](NC(=O)[C@@H]1Cc2ccccc2CN1)C(=O)Nc1ccc2c(c1)OCO2 was tested, and the EC50 was > 80 µM (inactive).
Compound Cc1ccc(OCCN2CCN(c3nc(NCc4ccco4)c4ccccc4n3)CC2)cc1 has an EC50 of 2.81 µM.
C1CCN(c2nc3nonc3nc2N2CCCC2)C1 was tested, and the EC50 was > 80 µM (inactive).
In the case of O=C(O)c1ccccc1C(=O)NCC(O)COCC1CC=CCC1 (centres undefined), the EC50 is reported as > 80 µM (inactive).
CN(C)c1ccc(-c2ccnc3c2CC(C)(C(=O)Nc2ccc(Cl)c(C(F)(F)F)c2)O3)cc1 (centres undefined) was tested, and the EC50 was > 80 µM (inactive).
CC(C)(C)NC(=O)Cn1nnc(-c2ccccc2NC(=O)c2cnccn2)n1 was tested, and the EC50 was 10.8 µM.
Cc1c(C(=O)OCC(=O)Nc2ccc(C(N)=O)cc2)cccc1[N+](=O)[O-] was tested, and the EC50 was 60.8 µM (inactive).
O=C(Nc1ccncc1)c1c(F)cccc1F gave an EC50 of 3.27 µM.
For Cc1cccc(Cc2c(C)nc3c(C(=O)NCc4ccco4)cnn3c2C)c1, the EC50 was > 80 µM (inactive).
CNc1cc(Cl)c2nonc2c1[N+](=O)[O-] showed an EC50 of 12.9 µM.
With Cc1sc(-c2ccccn2)nc1OC(=O)c1ccc(Cl)c(Cl)c1 the EC50 was > 80 µM (inactive).
For COc1cccc(C2CC(=O)N3CN(c4cccc(Cl)c4C)CSC3=C2C#N)c1OC (centres undefined), the EC50 was > 80 µM (inactive).
With CS(=O)(=O)N(Cc1cc2ccccc2[nH]c1=O)C1CCCCC1 the EC50 was > 80 µM (inactive).
With COc1cc(CC(CC(=O)O)CC(C)OCc2ccccc2)cc(OC)c1 (centres undefined) the EC50 was > 80 µM (inactive).
For CN(CCOc1ccc(-c2ccn(S(=O)(=O)c3c(Cl)cccc3Cl)n2)cc1)c1ccccn1, the EC50 was > 80 µM (inactive).
O=C(Nc1ccncc1)c1ccccc1F was tested, and the EC50 was 41 µM (inactive).
For C=C1C(=O)OC2C1CCC(C)=C1C(=O)C3OC3(C)C12 (centres undefined), the EC50 was > 80 µM (inactive).
In the case of C=C1C(C)C2C(Cc3ccccc3)NC(=O)C23OC(=O)/C=C/C(O)CCCC(C)C/C=C/C3C1O (centres undefined), the EC50 is reported as 11.5 µM.
With COC(=O)c1ccc(C(=O)OC)c(NC(=O)CSc2cccc[n+]2[O-])c1 the EC50 was > 80 µM (inactive).
Compound O=C(NCc1ccccc1)c1ccc(-c2cn[nH]c2)c2ccoc12 has an EC50 of 1.22 µM.
With Cc1ccc(CCN2CC(C(=O)NCCCN3CCCCCC3)CC2=O)cc1 (centres undefined) the EC50 was > 80 µM (inactive).
